The results in this text go back to publication PMC5104425, “A Novel Selective Inhibitor of Delta-5 Desaturase Lowers Insulin Resistance and Reduces Body Weight in Diet-Induced Obese C57BL/6J Mice” (PLoS ONE, 2016).

In one assay the target is T1, rat D6D (Rattus norvegicus, UniProt Q9Z122).
T1 construct: using hepatic microsomes prepared from SD rats; from tissue; host or cells: liver microsomes of SD rats (CLEA, Japan)
Description: In vitro enzyme assay for desaturase activity (hepatic microsomes), D6D. The format is biochemical. How it is done:
Therefore, we also confirmed that compound-326 has no effect on D9D activity. Inhibitory activity of compound-326 on rat D5D, D6D, and D9D was evaluated using hepatic microsomes prepared from SD rats (CLEA, Japan) as described previously. Assays were performed in a total volume of 30 μL in 96-well plates in a buffer containing 100 mM NaHPO4, 150 mM KCl, 10 mM NaF, 1.5 mM glutathione, 3 mM MgCl2, 1 mM NADH, 3 mM ATP, 0.3 mM CoA-SH, and 0.1% fatty acid free bovine serum albumin (BSA, Sigma, St. Louis, MO); and 0.1 μCi/well of [^14C] DGLA or [^14C] linoleic acids (ARC, St. Louis, MO) were used as substrates for measuring D5D and D6D activities, respectively. After pre-incubation of the test compound with rat liver microsomes (final 1.0 mg/mL) for 5 min, the reaction was started by the addition of NADH, ATP, and the substrates, and the reaction mixture was incubated for another 120 min at room temperature. For D9D assay, [^14C] stearoyl-CoA (PerkinElmer, Waltham, MA) was used in the absence of NADH, ATP, and CoA-SH, and D9D enzyme reaction was performed for 30 min. The reactions were then terminated by the addition of 0.63 N NaOH. […] 2.3 (Fujifilm) and IC50 values were determined using the conversion ratio from the radioactive substrates (20:3n6, 18:2n6 and 18:0) to the products (20:4n6, 18:3n6 and 18:1n9).

A further assay deals with T2, human D6D (Homo sapiens, UniProt O95864).
T2 construct: endogenous in cells; host or cells: HepG2
T2 sequence (O95864 1-444): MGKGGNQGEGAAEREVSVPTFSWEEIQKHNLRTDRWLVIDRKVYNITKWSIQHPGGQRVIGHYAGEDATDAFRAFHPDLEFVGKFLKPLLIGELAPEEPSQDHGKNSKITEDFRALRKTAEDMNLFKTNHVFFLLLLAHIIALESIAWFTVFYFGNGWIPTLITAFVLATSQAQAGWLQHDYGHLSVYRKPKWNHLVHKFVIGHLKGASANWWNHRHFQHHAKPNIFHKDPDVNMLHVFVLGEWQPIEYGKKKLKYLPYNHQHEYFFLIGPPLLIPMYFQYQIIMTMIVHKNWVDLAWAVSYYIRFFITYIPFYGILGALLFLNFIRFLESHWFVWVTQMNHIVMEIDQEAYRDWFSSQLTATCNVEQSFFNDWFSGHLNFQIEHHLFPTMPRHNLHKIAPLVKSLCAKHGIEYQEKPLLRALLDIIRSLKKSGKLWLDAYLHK
Nature of the assay: In vitro cell-based assay for desaturase activity (HepG2), D6D. How it is done: HepG2 cells were seeded in 96-well cell culture plates at 100 000 cells/well and incubated overnight in DMEM supplemented with 10% fetal bovine serum, 100 U/mL penicillin, and 100 μg/mL streptomycin in 5% CO2 at 37°C. The cells were washed twice with 200 μL of PBS and incubated with the test compounds in DMEM with 0.1% fatty acid free BSA for 30 min. Then, 0.1 μCi/well of [^14C]-labeled DGLA, linoleic acid, and stearic acid (ARC, St. Louis, MO) were added for each desaturase assay. After incubation for 3 h at 37°C, the cells were washed 3 times with 200 μL of PBS to remove [^14C]-labeled substrates in the medium and 0.63 N of NaOH was added to saponify fatty acids. Radioactive substrates and products were extracted, separated, and analyzed using the method as described above.

What is called IC50 is the concentration that inhibits the measured activity by half. A lower IC50 goes with greater potency.

T1 sequence (Q9Z122 whole entry): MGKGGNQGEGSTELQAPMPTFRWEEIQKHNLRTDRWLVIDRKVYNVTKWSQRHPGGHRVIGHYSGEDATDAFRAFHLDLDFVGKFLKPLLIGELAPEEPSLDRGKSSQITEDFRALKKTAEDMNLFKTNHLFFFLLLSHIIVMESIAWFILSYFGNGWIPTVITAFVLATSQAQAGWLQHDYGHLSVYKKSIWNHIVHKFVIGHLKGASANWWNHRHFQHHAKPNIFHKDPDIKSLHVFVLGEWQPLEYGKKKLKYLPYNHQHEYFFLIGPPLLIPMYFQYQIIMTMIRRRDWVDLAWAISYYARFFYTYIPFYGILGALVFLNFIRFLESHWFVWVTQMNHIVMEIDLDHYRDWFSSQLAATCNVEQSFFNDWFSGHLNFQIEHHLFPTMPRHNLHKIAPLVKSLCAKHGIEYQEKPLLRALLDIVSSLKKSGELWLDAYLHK

As for `O=C1Cc2c(nc(OCC(F)(F)C(F)(F)F)n(-c3ccc(OCC(F)(F)F)cc3)c2=O)N1` [Compound-326, 2-(2,2,3,3,3-Pentafluoropropoxy)-3-[4-(2,2,2-trifluoroethoxy)phenyl]-5,7-dihydro-3H-pyrrolo[2,3-d]pyrimidine-4,6-dione], the “inhibition of D6D activity” value against rat D6D and against human D6D was “almost no inhibition” each time. Besides, the half-maximal inhibitory concentration (IC50) against rat D6D (Enzyme (hepatic microsomes)) and at human D6D (Cell-based (HepG2)) was greater than 10 µM in each case.
